{
  "source": "patent US10251394B2",
  "about": "“Molecules having pesticidal utility, and intermediates, compositions, and processes, related thereto” (Dow AgroSciences LLC, priority 2016, dated 2019)",
  "format_in_all_cases": "in vivo",
  "key": {"[1]": {"test_system": "Beet Armyworm (Spodoptera exigua)", "assay": "Bioassay on Beet Armyworm (BAW), 128-well diet tray assay", "details": "Beet Armyworm, Table ABC, read-out: BAW rating", "method_in_brief": "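Second-instar larvae (one to five per well) placed on artificial diet surface-treated with 50 μg/cm^2 test molecule in 90:10 acetone-water, dried, eight wells per molecule. Held at 25° C, 14:10 light-dark, five to seven days; percent mortality recorded per well and averaged across the eight wells.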"}, "[2]": {"test_system": "Cabbage Looper (Trichoplusia ni)", "assay": "Bioassay on Cabbage Looper (CL), 128-well diet tray assay", "details": "Cabbage Looper, Table ABC, read-out: CL rating", "method_in_brief": "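Second-instar larvae, one to five per well, placed on artificial diet surface-treated with 50 μg/cm^2 compound in acetone-water, eight wells per compound. Held 5-7 days at 25° C, 14:10 light-dark; percent mortality per well averaged across wells.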"}, "[3]": {"test_system": "Green Peach Aphid (Myzus persicae)", "assay": "Bioassay on Green Peach Aphid (GPA), foliar spray on cabbage seedlings", "details": "72 h, Table ABC, read-out: GPA rating", "description": "Example B: Bioassays on Green Peach Aphid (Myzus Persicae, MYZUPE) (“GPA”) Certain molecules disclosed in this document were tested against GPA using procedures described in the following example. In the reporting of the results, the “GPA & YFM Rating Table” was used (See Table Section). Cabbage seedlings grown in 3-inch pots, with 2-3 small (3-5 cm) true leaves, were used as test substrate. The seedlings were infested with 20-50 GPA (wingless adult and nymph stages) one day prior to chemical application. Four pots with individual seedlings were used for each treatment. Test molecules (2 mg) were dissolved in 2 mL of acetone/methanol (1:1) solvent, forming stock solutions of 1000 ppm test molecule. The stock solutions were diluted 5× with 0.025% Tween 20 in water to obtain the solution at 200 ppm test molecule. A hand-held aspirator-type sprayer was used for spraying a solution to both sides of […] leaves until runoff. Reference plants (solvent check) were sprayed with the diluent only containing 20% by volume of acetone/methanol (1:1) solvent. Treated plants were held in a holding room for three days at approximately 25° C. and ambient relative humidity (RH) prior to grading. Evaluation was conducted by counting the number of live aphids per plant under a microscope. Percent Control was measured by using Abbott's correction formula (W. S. Abbott, “A Method of Computing the Effectiveness of an Insecticide” J. Econ. Entomol. 18 (1925), pp. 265-267) as follows. Corrected % Control=100*(X−Y)/X • where • X=No. of live aphids on solvent check plants and • Y=No. of live aphids on treated plants The results are indicated in the table entitled “Table ABC: Biological Results” (See Table Section)."}, "[4]": {"test_system": "Yellow Fever Mosquito (Aedes aegypti)", "assay": "Bioassay on Yellow Fever Mosquito (YFM) larvae, 96-well plate", "details": "Table ABC", "method_in_brief": "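About 1-day-old larvae in water with liver powder were added to wells holding compound from a 4000 ppm DMSO master diluted in 90:10 water:acetone. Plates covered and kept at room temperature for 3 days, then each well scored for mortality on a rating scale.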"}},
  "data": [
    {"smiles": "CN(CC(F)(F)F)C(=O)CNC(=O)c1ccc(/C(F)=C/C(c2ccc(Br)c(Cl)c2)C(F)(F)F)cc1C(F)(F)F", "note": "(centres unmarked) [PF24, (Z)-4-(3-(4-Bromo-3-chlorophenyl)-1,4,4,4-tetrafluorobut-1-en-1-yl)-N-(2-(methyl(2,2,2-trifluoroethyl)amino)-2-oxoethyl)-2-(trifluoromethyl)benzamide]", "values": [
      {"measurement": "pest or weed control at 50 µg/cm2", "setting": "[1]", "result": "50 to 100", "unit": "%"},
      {"measurement": "pest or weed control at 50 µg/cm2", "setting": "[2]", "result": "50 to 100", "unit": "%"},
      {"measurement": "pest or weed control at 200 µg/mL", "setting": "[3]", "result": "80 to 100", "unit": "%"},
      {"measurement": "YFM rating", "setting": "[4]", "result": "A (80-100)"}
    ]},
    {"smiles": "O=C(CNC(=O)c1ccc(/C(F)=C/C(c2cc(F)c(F)c(F)c2)C(F)(F)F)cc1C(F)(F)F)NCC(F)(F)F", "note": "(centres unmarked) [F160, (Z)—N-(2-Oxo-2-((2,2,2-trifluoroethyl)amino)ethyl)-4-(1,4,4,4-tetrafluoro-3-(3,4,5-trifluorophenyl)but-1-en-1-yl)-2-(trifluoromethyl)benzamide]", "values": [
      {"measurement": "pest or weed control at 50 µg/cm2", "setting": "[1]", "result": "50 to 100", "unit": "%"},
      {"measurement": "pest or weed control at 50 µg/cm2", "setting": "[2]", "result": "50 to 100", "unit": "%"},
      {"measurement": "pest or weed control at 200 µg/mL", "setting": "[3]", "result": "80 to 100", "unit": "%"},
      {"measurement": "YFM rating", "setting": "[4]", "result": "A (80-100)"}
    ]},
    {"smiles": "Cc1cc(C(/C=C(\\F)c2ccc(C(=O)NC3(C(=O)N(C)CC(F)(F)F)CC3)c(C(F)(F)F)c2)C(F)(F)F)cc(Cl)c1Cl", "note": "(centres unmarked) [PF16, (Z)-4-(3-(3,4-Dichloro-5-methylphenyl)-1,4,4,4-tetrafluorobut-1-en-1-yl)-N-(1-(methyl(2,2,2-trifluoroethyl)carbamoyl)cyclopropyl)-2-(trifluoromethyl)benzamide]", "values": [
      {"measurement": "pest or weed control at 50 µg/cm2", "setting": "[1]", "result": "50 to 100", "unit": "%"},
      {"measurement": "pest or weed control at 50 µg/cm2", "setting": "[2]", "result": "50 to 100", "unit": "%"},
      {"measurement": "pest or weed control at 200 µg/mL", "setting": "[3]", "result": "0 to 80", "unit": "%"},
      {"measurement": "YFM rating", "setting": "[4]", "result": "A (80-100)"}
    ]},
    {"smiles": "O=C(N[C@@H]1CON(CC(F)(F)F)C1=O)c1ccc(/C(F)=C/C(c2cc(F)c(F)c(F)c2)C(F)(F)F)cc1C(F)(F)F", "note": "(stereo partly drawn) [F155, N—((R)-3-Oxo-2-(2,2,2-trifluoroethyl)isoxazolidin-4-yl)-4-((Z)-1,4,4,4-tetrafluoro-3-(3,4,5-trifluorophenyl)but-1-en-1-yl)-2-(trifluoromethyl)benzamide]", "values": [
      {"measurement": "pest or weed control at 50 µg/cm2", "setting": "[1]", "result": "50 to 100", "unit": "%"},
      {"measurement": "pest or weed control at 50 µg/cm2", "setting": "[2]", "result": "50 to 100", "unit": "%"},
      {"measurement": "pest or weed control at 200 µg/mL", "setting": "[3]", "result": "80 to 100", "unit": "%"},
      {"measurement": "YFM rating", "setting": "[4]", "result": "A (80-100)"}
    ]},
    {"smiles": "C=CCc1c(Cl)cc(C(/C=C(\\F)c2ccc(C(=O)N[C@H](C)C(=O)NCC(F)(F)F)c(C(F)(F)F)c2)C(F)(F)F)cc1Cl", "note": "(stereo partly drawn) [F146, 4-((Z)-3-(4-Allyl-3,5-dichlorophenyl)-1,4,4,4-tetrafluorobut-1-en-1-yl)-N—((R)-1-oxo-1-((2,2,2-trifluoroethyl)amino)propan-2-yl)-2-(trifluoromethyl)benzamide]", "values": [
      {"measurement": "pest or weed control at 50 µg/cm2", "setting": "[1]", "result": "50 to 100", "unit": "%"},
      {"measurement": "pest or weed control at 50 µg/cm2", "setting": "[2]", "result": "50 to 100", "unit": "%"},
      {"measurement": "pest or weed control at 200 µg/mL", "setting": "[3]", "result": "0 to 80", "unit": "%"},
      {"measurement": "YFM rating", "setting": "[4]", "result": "B (More than 0-Less than 80)"}
    ]},
    {"smiles": "O=C(NC1(C(=O)NCC(F)(F)F)CC1)c1ccc(/C(F)=C/C(c2ccc(Br)c(Cl)c2)C(F)(F)F)cc1C(F)(F)F", "note": "(centres unmarked) [PF27]", "values": [
      {"measurement": "pest or weed control at 50 µg/cm2", "setting": "[1]", "result": "50 to 100", "unit": "%"},
      {"measurement": "pest or weed control at 50 µg/cm2", "setting": "[2]", "result": "50 to 100", "unit": "%"},
      {"measurement": "pest or weed control at 200 µg/mL", "setting": "[3]", "result": "80 to 100", "unit": "%"},
      {"measurement": "YFM rating", "setting": "[4]", "result": "B (More than 0-Less than 80)"}
    ]},
    {"smiles": "CCN(CC(F)(F)F)C(=O)CNC(=O)c1ccc(/C(F)=C/C(c2cc(Cl)c(Cl)c(Cl)c2)C(F)(F)F)cc1C(F)(F)F", "note": "(centres unmarked) [F167, (Z)—N-(2-(ethyl(2,2,2-trifluoroethyl)amino)-2-oxoethyl)-4-(1,4,4,4-tetrafluoro-3-(3,4,5-trichlorophenyl)but-1-en-1-yl)-2-(trifluoromethyl)benzamide]", "values": [
      {"measurement": "pest or weed control at 50 µg/cm2", "setting": "[1]", "result": "50 to 100", "unit": "%"},
      {"measurement": "pest or weed control at 50 µg/cm2", "setting": "[2]", "result": "50 to 100", "unit": "%"},
      {"measurement": "pest or weed control at 200 µg/mL", "setting": "[3]", "result": "80 to 100", "unit": "%"},
      {"measurement": "YFM rating", "setting": "[4]", "result": "A (80-100)"}
    ]},
    {"smiles": "CN(CC(F)(F)F)C(=O)CNC(=O)c1ccc(/C(F)=C/C(c2ccc(F)c(Cl)c2)C(F)(F)F)cc1C(F)(F)F", "note": "(centres unmarked) [PF6, (Z)-4-(3-(3-Chloro-4-fluorophenyl)-1,4,4,4-tetrafluorobut-1-en-1-yl)-N-(2-(methyl(2,2,2-trifluoroethyl)amino]-2-oxoethyl)-2-(trifluoromethyl)benzamide]", "values": [
      {"measurement": "pest or weed control at 50 µg/cm2", "setting": "[1]", "result": "50 to 100", "unit": "%"},
      {"measurement": "pest or weed control at 50 µg/cm2", "setting": "[2]", "result": "50 to 100", "unit": "%"},
      {"measurement": "pest or weed control at 200 µg/mL", "setting": "[3]", "result": "80 to 100", "unit": "%"},
      {"measurement": "YFM rating", "setting": "[4]", "result": "A (80-100)"}
    ]}
  ]
}
